Measured values: patent publication US11180479B2 (HAPLOGEN GmbH, priority 2017, dated 2021)
pEC50, pIC50: −log10 of the molar value.

What was measured:
[1] = tested on: picornaviruses (CVB1, HRV-A2, HRV-A23, EV-68); assay: Anti-picornavirus cytopathic effect (CPE) reduction assay on HeLa H1 cells; assay type: cell-based; details: 48 h, category from averaging EC50 values of four picornaviruses (CVB1, HRV-A2, HRV-A23, EV68), second symbol in parentheses
Procedure: Anti-Picornavirus Assay in Mammalian Cell Culture
The antiviral activity of selected compounds was tested using a cytopathic effect (CPE) reduction assay on HeLa H1 cells (ATCC CRL-1958). Briefly, cells were seeded in 96-well dishes (2×10^4 cells/well) in DMEM medium (Life technologies) supplemented with 10% FBS and PenStrep solution (100 U/mL Penicillin and 100 μg/mL streptomycin) and incubated at 37° C., 5% CO2 overnight. The next day, cells were pre-treated with serial dilutions of the compound in DMEM medium supplemented with 2% FBS and PenStrep for 2 h at 37° C., 5% CO2. Next, cells were infected with virus (CVB1, HRV-A2, HRV-A23, EV-68) at an multiplicity of infection (MOI) which results in a complete virus-induced CPE within 2 days in control wells (infected and vehicle-treated). After 48 h, supernatants were aspirated and 50 μl/well of CellTiterBlue reagent (Promega) diluted 1:5 in DMEM+2% FBS, was added to the cells. Plates were returned to the incubator and allowed to develop for 1.5 h. After that, plates were equilibrated to RT and subsequently, fluorescence was recorded (Excitation wavelength: 560 nm; emission wavelength: 590 nm) using a SpectraMax M5 multimode plate reader. Viability of cells was calculated according to the formula: V=(RFUCpd−RFUVeh/(RFUM−RFUVeh), where RFUCpd refers to infected and compound-treated cells, RFUVeh to infected and vehicle-treated cells and RFUM to uninfected and vehicle treated cells. Half-maximal effective concentrations (EC50) were calculated by non-linear regression analysis using the drc package in R (R Development. Core Team, 2005). EC50 categories as presented in Table 2 were calculated by averaging the EC50 values from four picornaviruses (CVB1, HRV-A2, HRV-A23, EV68).

PLA2G16 = molecular target: T1, PLA2G16 (Homo sapiens, UniProt P53816); assay: Enzyme activity assay for PLA2G16 (Red/Green BODIPY PC-A2 fluorescence); assay type: biochemical; details: His-tagged PLA2G16, 4 min pre-incubation, compound 2 nM to 50 μM; first symbol in parentheses
T1 construct: Hexa-His (N); made in house; host or cells: E. coli BL21(DE3)
T1 sequence (P53816 1-162): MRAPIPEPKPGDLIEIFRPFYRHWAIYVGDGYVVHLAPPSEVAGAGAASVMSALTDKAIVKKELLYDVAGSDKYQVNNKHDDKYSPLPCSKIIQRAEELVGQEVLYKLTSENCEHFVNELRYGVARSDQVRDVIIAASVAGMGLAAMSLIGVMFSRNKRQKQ
Excerpt: Purification and Enzyme Activity Assay for PLA2G16
A cDNA for PLA2G16 (NM_007069) was custom-synthesized by Genscript (Piscataway, USA) and inserted into a pET-based bacterial expression vector [Moffatt, B. A. and Studier, F. W. (1986) J. Mol. Biol. 189, 113-130; Rosenberg, A. H., Lade, B. N., Chui, D., Lin, S., Dunn, J. J., and Studier, F. W. (1987) Gene 56, 125-135], enabling the expression of N-terminally Hexa-His-tagged PLA2G16. E. coli BL21(DE3) (Agilent) were transformed with pET-His-PLA2G16 according to the manufacturer's instructions and plated on Carbenicillin-containing agar plates (final concentration: 100 μg/mL). A single clone was inoculated in 100 mL LB medium supplemented with 100 μg/mL Carbenicillin and the inoculated culture was grown at 37° C. overnight in a rotary shaker. On the next day, the bacterial culture was diluted in LB medium supplemented with 100 μg/mL Carbenicillin (30 mL overnight culture in 800 mL total culture volume). Bacteria were grown at 37° C. until the OD600 reached 0.6. Gene expression was induced by addition of 1 mM isopropyl-β-D-thiogalactopyranosid (IPTG) for 2 h at 18° C. Subsequently, bacteria were harvested by centrifugation (15 min; 10,000×g; 4° C.) and frozen at −80° C. The bacterial pellet was resuspended in Buffer A (50 mM Tris/HCl pH 7.5, 500 mM NaCl, 5% glycerol, 5 mM β-Mercaptoethanol and 1 mM PMSF) and lysed by addition of 1 mg/mL lysozyme (Sigma Aldrich) and 100 μg/mL DNasel-(Roche). The sample was incubated at 30° C. for 30 min to allow lysis to occur. Then, the lysate was cleared by centrifugation (15,000×g, 15 min, 4° C.) and incubated with 1.5 mL Ni-NTA agarose suspension (Qiagen) for 60 min at 4° C. The Ni-NTA agarose was washed with 10 mL Buffer A. Bound protein was eluted by applying a manual gradient of Buffer A supplemented with increasing concentrations of imidazole (Sigma Aldrich; 25/50/75/100/250 mM). Purified fractions were analyzed by SDS-PAGE followed by Coomassie staining to assess the purity.
Activity of the protein was assessed as follows:
Red/Green BODIPY® PC-A2 (Invitrogen, 1 mM in DMSO) was mixed with equal volumes of 1,2-Dioleoyl-sn-glycero-3-phosphocholine (DOPC; Sigma Aldrich, 10 mM in Ethanol) and 1,2-Dioleoyl-sn-glycero-3-phospho-rac-(1-glycerol) (DOPG; Sigma Aldrich, 10 mM in Ethanol) and 0.5 volumes of Cholesterol (CHOL; Sigma Aldrich, 10 mM in Ethanol) and vortexed for 5 s. The mixture (Red/Green BODIPY® PC-A2/DOPC/DOPG/CHOL) was diluted 1:91.4 in activity assay buffer (50 mM Tris/HCl pH 8.5, 100 mM NaCl) using a small-orifice pipette tip under constant vortexing. In the following, this preparation will be referred to as the “substrate solution”.
In order to evaluate their inhibitory potential, compounds were dissolved at 10 mM concentration in DMSO and directly spotted into assay plates (Corning, Cat. No. 3576) using acoustic liquid transfer (Labcyte Echo 525). Each compound was spotted at increasing concentrations, ranging from 2 nM to 50 μM (concentration in the final assay volume). 50 μl of PLA2G16 enzyme solution (diluted in activity buffer, supplemented with 5 mM L-Glutathione; Sigma Aldrich) was pre-incubated with compounds for 4 min., followed by addition of 50 μl of substrate solution. Fluorescence was recorded immediately after substrate addition for a total time of 10 min. using a SpectraMax M5 multimode reader (Excitation wavelength: 480 nm, emission wavelength: 530 nm). The relative increase of fluorescence over time is referred to as the enzyme activity. Half-maximal inhibitory concentrations (IC50) were derived by non-linear regression analysis using the drc package in R (R Development. Core Team, 2005).

| pEC50 [1] | pIC50 (PLA2G16) | Compound |
| --- | --- | --- |
| 5.00 to 6.00 | > 6.00 | O=C(NCC(F)(F)F)C(=O)[C@H]1CNC(=O)[C@@H]1c1ccccc1 (racemic) [FP-22, Rac-2-oxo-2-[(3R,4S)-5-oxo-4-phenylpyrrolidin-3-yl]-N-(2,2,2-trifluoroethyl)acetamide] |
| > 6.00 | > 6.00 | O=C(NCC1CC(F)(F)C1)C(=O)[C@H]1CNC(=O)[C@@H]1c1ccccc1 (racemic) [FP-23, Rac-N-[(3,3-difluorocyclobutyl)methyl]-2-oxo-2-[(3R,4S)-5-oxo-4-phenylpyrrolidin-3-yl]acetamide] |
| > 6.00 | > 6.00 | O=C(NCCC1CC1)C(=O)[C@H]1CNC(=O)[C@@H]1c1ccccc1 (racemic) [FP-24, Rac-N-(2-cyclopropylethyl)-2-oxo-2-[(3R,4S)-5-oxo-4-phenylpyrrolidin-3-yl]acetamide] |
| 5.00 to 6.00 | > 6.00 | O=C(NCC(F)(F)C(F)(F)F)C(=O)[C@H]1CNC(=O)[C@@H]1c1ccccc1 (racemic) [FP-25, Rac-2-oxo-2-[(3R,4S)-5-oxo-4-phenylpyrrolidin-3-yl]-N-(2,2,3,3,3-pentafluoro-propyl)acetamide] |
| 5.00 to 6.00 | > 6.00 | CC(F)(F)CNC(=O)C(=O)[C@H]1CNC(=O)[C@@H]1c1ccc(F)cc1 (racemic) [FP-26, Rac-N-(2,2-difluoropropyl)-2-[(3R,4S)-4-(4-fluorophenyl)-5-oxopyrrolidin-3-yl]-2-oxoacetamide] |
| 5.00 to 6.00 | > 6.00 | CC(C)NC(=O)C(=O)[C@H]1CNC(=O)[C@@H]1c1ccc(F)cc1 (racemic) [FP-27, Rac-2-[(3R,4S)-4-(4-fluorophenyl)-5-oxopyrrolidin-3-yl]-2-oxo-N-(propan-2-yl)acetamide] |
| > 6.00 | > 6.00 | O=C(NCC1CC1)C(=O)[C@H]1CNC(=O)[C@@H]1c1ccc(F)cc1 (racemic) [FP-28, Rac-N-(cyclopropylmethyl)-2-[(3R,4S)-4-(4-fluorophenyl)-5-oxopyrrolidin-3-yl]-2-oxoacetamide] |
| > 6.00 | > 6.00 | O=C(NC1CC1)C(=O)[C@H]1CNC(=O)[C@@H]1Cc1ccc(F)cc1 (racemic) [FP-29, Rac-N-cyclopropyl-2-[(3R,4R)-4-[(4-fluorophenyl)methyl]-5-oxopyrrolidin-3-yl]-2-oxoacetamide] |
| > 6.00 | > 6.00 | CCNC(=O)C(=O)[C@H]1CNC(=O)[C@@H]1Cc1ccc(F)cc1 (racemic) [FP-30, Rac-N-ethyl-2-[(3R,4R)-4-[(4-fluorophenyl)methyl]-5-oxopyrrolidin-3-yl]-2-oxoacetamide] |
| > 6.00 | > 6.00 | O=C(NCC1CC1)C(=O)[C@H]1CNC(=O)[C@@H]1Cc1ccc(F)cc1 (racemic) [FP-31, Rac-N-(cyclopropylmethyl)-2-[(3R,4R)-4-[(4-fluorophenyl)methyl]-5-oxopyrrolidin-3-yl]-2-oxoacetamide] |
| > 6.00 | > 6.00 | O=C(NC1CC1)C(=O)[C@H]1CN(CC2CCOCC2)C(=O)[C@@H]1Cc1ccccc1 (racemic) [FP-32, Rac-2-[(3R,4R)-4-benzyl-1-[(oxan-4-yl)methyl]-5-oxopyrrolidin-3-yl]-N-cyclopropyl-2-oxoacetamide] |
| > 6.00 | > 6.00 | CCNC(=O)C(=O)[C@H]1CN(CC2CCOCC2)C(=O)[C@@H]1Cc1ccccc1 (racemic) [FP-33, Rac-2-[(3R,4R)-4-benzyl-1-[(oxan-4-yl)methyl]-5-oxopyrrolidin-3-yl]-N-ethyl-2-oxoacetamide] |
| 5.00 to 6.00 | > 6.00 | Cc1noc(CN2C[C@H](C(=O)C(=O)NC3CC3)[C@@H](Cc3ccccc3)C2=O)n1 (racemic) [FP-34, Rac-2-[(3R,4R)-4-benzyl-1-[(3-methyl-1,2,4-oxadiazol-5-yl)methyl]-5-oxopyrrolidin-3-yl]-N-cyclopropyl-2-oxoacetamide] |
